Experiments:
Type in all cases: physicochemical
[1] = Cocrystal screening by slurry method (Comparative Examples 4-1 to 4-6), powder X-ray diffraction; parameters: key: A cocrystal was completely formed.; B: A mixture of a cocrystal and the host compound or guest compound was formed.; C: A cocrystal was not formed (a mixture of the host compound and the guest compound was formed).; —: A residue was not obtained; conditions: host carbamazepine, room temperature 7 days; for Cocrystal formation, Comparative Example 4-3: slurry in tetrahydrofuran
Method: 3 mg (0.0127 mmoles) of carbamazepine and a guest compound shown in Table 4 in an equimolar amount (0.0127 mmoles) to carbamazepine were weighed and put into a glass container, to which was then added 60 μL of water. These were shaken at room temperature for 7 days, and the obtained residues were subjected to powder X-ray diffraction measurement. 3 mg (0.0127 mmoles) of carbamazepine and a guest compound shown in Table 4 in an equimolar amount (0.0127 mmoles) to carbamazepine were weighed and put into a glass container, to which was then added 60 μL of ethanol. These were shaken at room temperature for 7 days, and the obtained residues were subjected to powder X-ray diffraction measurement. 3 mg (0.0127 mmoles) of carbamazepine and a guest compound shown in Table 4 in an equimolar amount (0.0127 mmoles) to carbamazepine were weighed and put into a glass container, to which was then added 60 μL of tetrahydrofuran. These were shaken at room temperature for 7 days, and the obtained residues were subjected to powder X-ray diffraction measurement. 3 mg (0.0127 mmoles) of carbamazepine and a guest compound shown in Table 4 in an equimolar amount (0.0127 mmoles) to carbamazepine were weighed and put into a glass container, to which was then added 60 μL of toluene. These were shaken at room temperature for 7 days, and the obtained residues were subjected to powder X-ray diffraction measurement. 3 mg (0.0127 mmoles) of carbamazepine and a guest compound shown in Table 4 in an equimolar amount (0.0127 mmoles) to carbamazepine were weighed and put into a glass container, to which was then added 60 μL of ethyl acetate. These were shaken at room temperature for 7 days, and the obtained residues were subjected to powder X-ray diffraction measurement. 3 mg (0.0127 mmoles) of carbamazepine and a guest compound shown in Table 4 in an equimolar amount (0.0127 mmoles) to carbamazepine were weighed and put into a glass container, to which was then added 60 μL of acetone. These were shaken at room temperature for 7 days, and the obtained residues were subjected to powder X-ray diffraction measurement.

[2] = Cocrystal screening by slurry method (Comparative Examples 1-1 to 1-6), powder X-ray diffraction; parameters: key to Cocrystal formation, Comparative Example 1* / Cocrystal formation, Comparative Example 1-1 / Cocrystal formation, Comparative Example 1-2 / Cocrystal formation, Comparative Example 1-3 / Cocrystal formation, Comparative Example 1-4 / Cocrystal formation, Comparative Example 1-5 / Cocrystal formation, Comparative Example 1-6: A cocrystal was completely formed.; B: A mixture of a cocrystal and the host compound or guest compound was formed.; C: A cocrystal was not formed (a mixture of the host compound and the guest compound was formed); conditions: host theophylline; for Cocrystal formation, Comparative Example 1-6: slurry in acetone; for Cocrystal formation, Comparative Example 1-6 / Cocrystal formation, Comparative Example 1-2 / Cocrystal formation, Comparative Example 1-5 / Cocrystal formation, Comparative Example 1-3 / Cocrystal formation, Comparative Example 1-4 / Cocrystal formation, Comparative Example 1-1: room temperature 7 days; for Cocrystal formation, Comparative Example 1-2: slurry in ethanol; for Cocrystal formation, Comparative Example 1-5: slurry in ethyl acetate; for Cocrystal formation, Comparative Example 1-3: slurry in tetrahydrofuran; for Cocrystal formation, Comparative Example 1-4: slurry in toluene; for Cocrystal formation, Comparative Example 1*: slurry summary: A if a cocrystal was formed in any one of Comparative Examples 1-1 to 1-6
Method: 3 mg (0.0167 mmoles) of theophylline and a guest compound shown in Table 1 in an equimolar amount (0.0167 mmoles) to theophylline were weighed and put into a glass container, to which was then added 60 μL of water. These were shaken at room temperature for 7 days, and the obtained residues were subjected to powder X-ray diffraction measurement. 3 mg (0.0167 mmoles) of theophylline and a guest compound shown in Table I in an equimolar amount (0.0167 mmoles) to theophylline were weighed and put into a glass container, to which was then added 60 μL of ethanol. These were shaken at room temperature for 7 days, and the obtained residues were subjected to powder X-ray diffraction measurement. 3 mg (0.0167 mmoles) of theophylline and a guest compound shown in Table 1 in an equimolar amount (0.0167 mmoles) to theophylline were weighed and put into a glass container, to which was then added 60 μL of tetrahydrofuran. This was shaken at room temperature for 7 days, and the obtained residues were subjected to powder X-ray diffraction measurement. 3 mg (0.0167 mmoles) of theophylline and a guest compound shown in Table 1 in an equimolar amount (0.0167 mmoles) to theophylline were weighed and put into a glass container, to which was then added 60 μL of toluene. These were shaken at room temperature for 7 days, and the obtained residues were subjected to powder X-ray diffraction measurement. 3 mg (0.0167 mmoles) of theophylline and a guest compound shown in Table 1 in an equimolar amount (0.0167 mmoles) to theophylline were weighed and put into a glass container, to which was then added 60 μL of ethyl acetate. These were shaken at room temperature for 7 days, and the obtained residues were subjected to powder X-ray diffraction measurement. 3 mg (0.0167 mmoles) of theophylline and a guest compound shown in Table 1 in an equimolar amount (0.0167 mmoles) to theophylline were weighed and put into a glass container, to which was then added 60 μL of acetone. These were shaken at room temperature for 7 days, and the obtained residues were subjected to powder X-ray diffraction measurement.

[3] = Cocrystal screening by heating method without menthol (Comparative Example 6); parameters: key: A cocrystal was completely formed.; B: A mixture of a cocrystal and the host compound or guest compound was formed.; C: A cocrystal was not formed (a mixture of the host compound and the guest compound was formed); conditions: host carbamazepine, equimolar guest, no menthol, 4 hours at 80° C.
Method: Carbamazepine and a guest compound shown in Table 4 in an equimolar amount to carbamazepine were weighed and mixed using an agate mortar. At that time, particles having a large size to an extent that they could be distinguished through visual inspection were grinded on the agate mortar. 10 mg of this mixed powder was weighed and put into a test tube and heated for 4 hours in an oven at 80° C., and the obtained solids were subjected to powder X-ray diffraction measurement and thermal analysis.

[4] = Cocrystal formation with 1-menthol under humidified condition (Example 3); parameters: key: A cocrystal was completely formed.; B: A mixture of a cocrystal and the host compound or guest compound was formed.; C: A cocrystal was not formed (a mixture of the host compound and the guest compound was formed); conditions: host theophylline, 1-menthol added, 80° C. and 90% RH
Method: About 30 mg (0.167 mmoles) of theophylline and about 29 mg (0.167 mmoles) of L(+)-arginine were weighed and mixed using an agate mortar. […] 15 mg of this mixed powder was weighed and put into a test tube, to which was then added 15 mg of 1-menthol which had been grinded using an agate mortar, followed by vigorously stirring for one minute using a vortex mixer. Thereafter, the obtained mixture of theophylline, L(+)-arginine, and 1-menthol was heated for 6 and 21 hours, respectively in a thermo-hygrostat at 80° C. and 90% RH, and the obtained solids were subjected to powder X-ray diffraction measurement and thermal analysis.

SMILES	Cocrystal formation, Comparative Example 4-3 [1]	Cocrystal formation, Comparative Example 1-6 [2]	Cocrystal formation, Comparative Example 1-2 [2]	Cocrystal formation, Comparative Example 1-5 [2]	Cocrystal formation, Comparative Example 1-3 [2]	Cocrystal formation, Comparative Example 1-4 [2]	Cocrystal formation, Comparative Example 1-1 ([2]; slurry in water)	Cocrystal formation, Comparative Example 1* [2]	Cocrystal formation, Comparative Example 6 [3]	Cocrystal formation, Comparative Example 4-5 ([1]; slurry in ethyl acetate)	Cocrystal formation, Example 3, Heating for 6 hours ([4]; 6 hours)	Cocrystal formation, Example 3, Heating for 21 hours ([4]; 21 hours)	Cocrystal with theophylline found, Comparative Example 1-1 ([2]; slurry in water)
C/C=C/C=C/C(=O)O [Sorbic acid]	—	C	C	A	C	A	C	A	B				
O=C1NS(=O)(=O)c2ccccc21 [Saccharin]	—	C	A	A	C	C	C	A	C				
NCC(=O)O [Glycine]	—	C	C	C	C	C	C	C	C				
O=C(O)C(=O)O [Oxalic acid]	—	A	C	A	A	C	C	A	B				
O=C(O)CC(O)(CC(=O)O)C(=O)O [Citric acid]	—	C	C	A	C	C	C	A	B	—			
N=C(N)NCCC[C@H](N)C(=O)O [L(+)-Arginine]	—	C	C	C	C	C	A	A	C		A	A	could be found out
CC(C)C[C@H](N)C(=O)O [L-Leucine]	—	C	C	C	C	C	C	C	C				
O=C(O)CCCC(=O)O [Glutaric acid]	—	C	C	C	C	C	C	C	B				
O=C(O)c1ccccc1 [Benzoic acid]	—	C	C	C	C	C	C	C	B				
